In patent US20110118276A1, “METHODS OF TREATING ATHEROSCLEROSIS” (priority 2008, published 2011):
Entries after “also recorded” stand apart in the source; their conditions may differ.

Legend:
Type in all cases: cell-based, human
HIF-1α protein = HIF-1α protein accumulation, western blot; conditions: foam cells; for antagonism of adenosine induced HIF-1α protein accumulation: antagonist 100 nM, adenosine 100 μM, hypoxia
Protocol: Hypoxic exposures were done in a modular incubator chamber and flushed with a gas mixture containing 1% O2, 5% CO2 and balance N2 (MiniGalaxy, RSBiotech, Irvine, Scotland).
U937 cells were induced to differentiate into macrophages by treatment with phorbol myristate acetate (PMA, 40 nM) for 72 h. […] All dialyses were carried out with Pierce Slide-A-Lyzer cassettes (10,000 molecular weight cut-off).
Whole cell lysates were prepared as described previously (27). […] In experiments aimed to detect HIF, western blot analyses were performed using antibody against HIF-1α (1:250 dilution) and […] (1:1000 dilution) in 5% non-fat dry milk in PBS/0.1°)/0 Tween-20 overnight at 4° C. The protein concentration was determined using BCA protein assay kit (Pierce, Rockford, Ill.). Tubulin (1:250) was used to ensure equal protein loading. Immunoreactivity was assessed and quantified by using a VersaDoc Imaging System (Bio-Rad).

IL-8 = IL-8 secretion by foam cells, ELISA; conditions: for block of adenosine-induced IL-8 increase: antagonist 100 nM
Protocol: (§1) U937 cells were induced to differentiate into macrophages by treatment with phorbol myristate acetate (PMA, 40 nM) for 72 h. Before use oxLDL was dialyzed against 1 L of 0.15 M sodium chloride and 0.3 mM EDTA (pH 7.4) for 12 h at 4° C., then against RPMI 1640 medium (two changes, 1 L/each change) for 24 h. All dialyses were carried out with Pierce Slide-A-Lyzer cassettes (10,000 molecular weight cut-off). After dialysis, lipoproteins were sterilized by passing them through a 0.45 μm (pore-size) filter, then added (50-100 μg/mL, Intracel, Frederick, Md.) to PMA-treated U937 cells and incubated in serum-free RPMI 1640 for 48 h.
(§2) The levels of VEGF and IL-8 protein secreted by the cells in the medium were determined by VEGF and IL-8 ELISA kits (R&D Systems) according to the manufacturer's instructions. The data were presented as mean±SD from three independent experiments.

VEGF = VEGF secretion by foam cells, ELISA; conditions: adenosine 100 μM, 24 h, hypoxic; for effect on adenosine-induced VEGF increase: antagonist 100 nM, U937 derived foam cells
Protocol: as §1, §2

PMA-treated U937 cells = test: Foam cell formation, Oil red O stain analysis; conditions: oxLDL 50 μg/mL, adenosine 100 μM, 24 h
Protocol: as §1
Treatment of PMA-differentiated U937 cells with test agents was performed 2 h before addition of oxLDL. After exposition to oxLDL under hypoxia for 24 h, U937 cells were fixed in phosphate buffered saline-buffered 4% paraformaldehyde solution for 15 min and then air dried. Oil red O (in 60% isopropanol) staining was done for 15 min essentially as described previously by Kalayoglu and Byrne (Infect. Immun. 1998, 66, 5067-5072). Cells were viewed under a bright-field microscope in 100× fields using a Nikon's Eclipse E800 microscope. Foam cells were defined as macrophages in which cytoplasm was filled with Oil red O-stainable lipid droplets.

[1] = adenosine 100 μM, U937 derived foam cells, hypoxic

SMILES | block of adenosine-induced IL-8 increase (IL-8; [1]) | antagonism of adenosine induced HIF-1α protein accumulation (HIF-1α protein) | effect on adenosine-induced VEGF increase (VEGF) | further results
CCNC(=O)[C@H]1O[C@@H](n2cnc3c(Nc4ccc(OCC(=O)Nc5ccccc5)cc4)ncnc32)[C@H](O)[C@@H]1O [1-deoxy-1-[6-{4-[(phenylcarbamoyl)-methoxy]phenylamino}-9H-purin-9-yl]-N-ethyl-β-D-ribofuranuronamide] |  |  |  | induction of HIF-1α protein by adenosine receptor agonists (HIF-1α protein; CHA 10, 100 nM, CGS 21680 500, 1000 nM, A2B agonist 10, 100 nM, CI-IB-MECA 10, 100 nM): able to induce HIF-1α protein; IL-8 secretion (IL-8; A2B receptor agonist 1 μM): 142±8 % of IL-8 secretion; EC50 (IL-8; Homo sapiens, U-937, dose-response curve, U937 derived foam cells, hypoxic, read-out: EC50 for stimulation of IL-8 secretion): 58 ± 6 nM
CCCn1c(=O)c2[nH]c(C3CCCC3)nc2n(CCC)c1=O [DPCPX, 1,3-dipropyl-8-cyclopentylxanthine] | not |  |  | 
CCCn1c(=O)c2nc(-c3cc(OCC(=O)Nc4ccc5c(c4)OCO5)nn3C)[nH]c2n(CCC)c1=O [MRE-2029F20, N-1,3-benzodioxol-5-yl-2-{[5-(2,6-dioxo-1,3-dipropyl-2,3,6,9-tetrahydro-1H-purin-8-yl)-1-methyl-1H-pyrazol-3-yl]oxy}acetamide] | blocked | partially antagonized | strongly reduced | block of the effect of the A2B receptor agonist (1 μM) on IL-8 secretion (IL-8; U937 derived foam cells): completely blocked; effect on oxLDL and adenosine induced foam cells formation (Oil red O) (PMA-treated U937 cells; antagonist 100 nM): blocked the foam cells formation; also recorded: inhibition of foam cell formation
CCCn1cc2c(nc(NC(=O)Nc3ccc(OC)cc3)n3nc(-c4ccco4)nc23)n1 [MRE-3008F20, 5-N-(4-methoxyphenyl-carbamoyl)amino-8-propyl-2-(2furyl)-pyrazolo-[4,3e]-1,2,4-triazolo[1,5-c]pyrimidine] | not | partially antagonized | strongly reduced | effect on oxLDL and adenosine induced foam cells formation (Oil red O) (PMA-treated U937 cells; antagonist 100 nM): blocked the foam cells formation; also recorded: inhibition of foam cell formation
Nc1nc2c(cnn2CCc2ccccc2)c2nc(-c3ccco3)nn12 [SCH 58261] | not | partially antagonized | inhibited to lesser extent | 
COc1ccccc1NC(=O)Nc1nc(-c2cccnc2)nc2ccccc12 [VUF 5574] |  |  |  | effect on oxLDL and adenosine induced foam cells formation (Oil red O) (PMA-treated U937 cells; antagonist 10 nM): blocked the foam cells formation; also recorded: inhibition of foam cell formation
Nc1ncnc2c1ncn2[C@@H]1O[C@H](CO)[C@@H](O)[C@H]1O [adenosine] |  |  |  | increase of VEGF levels (VEGF; supernatant of U937 derived foam cells): 165±10%; increase of IL-8 levels (IL-8; adenosine 100 μM, supernatant of U937 derived foam cells, hypoxic): 158±10%; effect on oxLDL-induced foam cell formation (Oil red O) (PMA-treated U937 cells): increased
